Legend:
Type in all cases: functional
[1] = test system: Rattus norvegicus; test: Antiinflammatory activity in Wistar rat model of acute aseptic inflammation assessed as reduction in paw edema by measuring neutrophils level at 25 mg/kg, IG preadministered with compound for 1 hrs followed by carrageenan administration and measured after 3 hrs (reference value: 4.100 +/- 0.424 10^3/ml); details: time 4 hrs
[2] = test system: Rattus norvegicus; test: Antiinflammatory activity in Wistar rat model of acute aseptic inflammation assessed as inhibition of carrageenan-induced exudative inflammation at 25 mg/kg, IG preadministered with compound for 1 hrs followed by carrageenan administration and measured after 3 hrs by water displacement plethysmometer relative to control; details: po, time 4 hrs
[3] = test system: Rattus norvegicus; test: (§1) Antiinflammatory activity in Wistar rat model of acute aseptic inflammation assessed as reduction in paw edema by measuring nitrotyrosine level at 25 mg/kg, IG preadministered with compound for 1 hrs followed by carrageenan administration and measured after 3 hrs by ELISA (reference value: 16.45 +/- 3.748 nM/ml); details: time 4 hrs
[4] = test system: Rattus norvegicus; test: as §1, with “IL-1beta” for “nitrotyrosine”, “3.250” for “16.45”, “0.778 pg/ml)” for “3.748 nM/ml)”; details: time 4 hrs
[5] = test system: Rattus norvegicus; test: as §1, with “eNOS” for “nitrotyrosine”, “8.150” for “16.45”, “6.576 pg/ml)” for “3.748 nM/ml)”; details: time 4 hrs
[6] = test system: Rattus norvegicus; test: (§2) Antiinflammatory activity in carrageenan induced Wistar rat model of acute aseptic inflammation assessed as healthy paw volume at 25 mg/kg, IG preadministered with compound for 1 hrs followed by carrageenan administration and measured after 3 hrs by water displacement plethysmometer (reference value: 1.20 +/- 0.06 ml); details: time 4 hrs
[7] = test system: Rattus norvegicus; test: as §2, with “edema” for “healthy”, “2.48” for “1.20”, “0.09” for “0.06”; details: time 4 hrs
[8] = test system: Rattus norvegicus; test: as §1, with “COX-2” for “nitrotyrosine”, “15.00” for “16.45”, “4.243 ng/ml)” for “3.748 nM/ml)”; details: time 4 hrs
[9] = test system: Rattus norvegicus; test: as §1, with “C-reactive protein” for “nitrotyrosine”, “10.64” for “16.45”, “1.223 ng/ml)” for “3.748 nM/ml)”; details: time 4 hrs
[10] = test system: Rattus norvegicus; test: as §2, with “edema” for “healthy”, “2.23” for “1.20”, “0.13” for “0.06”; details: time 4 hrs
[11] = test system: Rattus norvegicus; test: as §2, with “1.38” for “1.20”; details: time 4 hrs
[12] = test system: Rattus norvegicus; test: Antiinflammatory activity in Wistar rat model of acute aseptic inflammation assessed as increase in eNOS level at 25 mg/kg, IG preadministered with compound for 1 hrs followed by carrageenan administration and measured after 3 hrs by ELISA relative to control; details: time 4 hrs
[13] = test system: Rattus norvegicus; test: Antiinflammatory activity in Wistar rat model of acute aseptic inflammation assessed as decrease in nitrotyrosine level at 25 mg/kg, IG preadministered with compound for 1 hrs followed by carrageenan administration and measured after 3 hrs by ELISA relative to control; design: scale not given: the % may be the effect or the level left; details: time 4 hrs

Row | Structure (SMILES) | Activity [1] | inhibition in vivo at 25 mg/kg [2] [%] | Activity [3] [nM/ml] | Activity [4] [pg/mL] | Activity [5] [pg/mL] | Activity [6] [mL] | Activity [7] [mL] | Activity [8] [ng/mL] | Activity [9] [ng/mL] | Activity [10] [mL] | Activity [11] [mL] | Activity [12] [%] | Activity [13] [%]
1 | CCOC(=O)c1ccc(-c2nc3n(n2)C(c2ccc(C(=O)O)cc2)Nc2ccccc2-3)cc1 (stereo not drawn) | 2.533 10^3/ml | 21.9 | 11.37 | 0.87 | 14.43 | 1.38 | 2.37 | 4.367 | 5.8 |  |  |  | 
2 | CCOC(=O)C1(C)Nc2ccccc2-c2nc(-c3ccccc3)nn21 (stereo not drawn) |  | 24.3 |  |  |  |  |  |  |  | 2.03 | 1.39 |  | 
3 | O=C(O)CCC12CCC(=O)N1c1ccccc1-c1nc(-c3ccccc3)nn12 (stereo not drawn) |  | 0.94 |  |  |  |  |  |  |  | 2.25 | 1.41 |  | 
4 | O=C1c2ccccc2C2N1c1ccccc1-c1nc(-c3ccccc3)nn12 (stereo not drawn) |  | 12.5 |  |  |  |  |  |  |  | 1.99 | 1.25 |  | 
5 | CCOC(=O)c1nc2n(n1)C1(CCC(=O)O)CCC(=O)N1c1ccccc1-2 (stereo not drawn) |  | 12.2 |  |  |  |  |  |  |  | 2.03 | 1.28 |  | 
6 | CCOC(=O)c1ccc(-c2nc3n(n2)C(c2cccc(C(=O)O)c2)Nc2ccccc2-3)cc1 (stereo not drawn) | 2.4 10^3/ml | 31 | 6.433 | 0.613 | 28.03 | 1.36 | 2.24 | 3.8 | 4.233 |  |  |  | 
7 | O=C([O-])Cc1ccccc1Nc1c(Cl)cccc1Cl.[Na+] [DICLOFENAC SODIUM] | 2.52 10^3/ml | 69.8 | 17.6 | 1.27 | 8.43 |  |  | 9.785 | 4.245 | 1.84 | 1.55 | 18.07 | 21.42
8 | O=C(O)C1Nc2ccccc2-c2nc(-c3ccccc3)nn21 (stereo not drawn) |  | 12.2 |  |  |  |  |  |  |  | 2.03 | 1.28 |  | 
9 | O=C1CCC2(C(=O)O)N1c1ccccc1-c1nc(-c3ccccc3)nn12 (stereo not drawn) |  | 6.22 |  |  |  |  |  |  |  | 2.19 | 1.39 |  | 
10 | CCOC(=O)c1ccc(-c2nc3n(n2)C(c2ccc(C(=O)O)c(O)c2)Nc2ccccc2-3)cc1 (stereo not drawn) |  | 18.3 |  |  |  | 1.39 | 2.38 |  |  |  |  |  | 
11 | CCOC(=O)c1ccc(-c2nc3n(n2)C2(C(=O)O)CCC(=O)N2c2ccccc2-3)cc1 (stereo not drawn) |  | 5.75 |  |  |  |  |  |  |  | 2.23 | 1.43 |  | 
12 | CCOC(=O)c1nc2n(n1)C(c1ccc(O)c(C(=O)O)c1)Nc1ccccc1-2 (stereo not drawn) | 2.133 10^3/ml | 45.8 | 5.6 | 2.633 | 35.23 | 1.34 | 2.03 | 3.7 | 3.183 |  |  |  | 
13 | O=C(O)c1cc(C2Nc3ccccc3-c3nc(-c4ccccc4)nn32)ccc1O (stereo not drawn) | 2.433 10^3/ml | 33.1 | 10.67 | 0.427 | 25.97 | 1.28 | 2.13 | 11.27 | 5.267 |  |  | 77.06 | 30.88
14 | CCOC(=O)c1nc2n(n1)C(c1ccc(C(=O)O)cc1)Nc1ccccc1-2 (stereo not drawn) | 1.667 10^3/ml | 52.7 | 5.367 | 0.253 | 39.9 | 1.45 | 2.05 | 3.033 | 2.48 |  |  |  | 
15 | O=C(O)c1ccc(C2Nc3ccccc3-c3nc(-c4ccccc4)nn32)cc1 (stereo not drawn) |  | 16.1 |  |  |  | 1.28 | 2.35 |  |  |  |  |  | 
16 | CCOC(=O)CC1(C)Nc2ccccc2-c2nc(-c3ccc(OC)cc3)nn21 (stereo not drawn) |  | 7.27 |  |  |  |  |  |  |  | 2.12 | 1.33 |  | 
